In US20250236608A1, “EGFR INHIBITORS” (Blueprint Medicines Corporation, priority 2022, published 2025):

What was measured:
[1] = target: pEGFR (Tyr1068) in PC-9 cells (Ex19Del) (Homo sapiens (Human), UniProt P00533, DEL746-750); assay: PC-9 pEGFR AlphaLISA assay; type: cell-based; details: 4 hours incubation, p-EGFR (Tyr1068) AlphaLISA, read-out: Ext pEGFR_PC-9 Ex19Del IC50
Outline: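 First, cells settled overnight in 10% FBS medium. Second, a 10-point, 4-fold series of test agents was applied for 4 h at 37° C. Third, lysates were probed with AlphaLISA acceptor and donor beads, incubated overnight in the dark. Last, IC50 was taken from the dose-response.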

[2] = target: EGFR L858R (Homo sapiens (Human), UniProt P00533, L858R); assay: Biochemical EGFR inhibition assay, EGFR L858R; details: Caliper mobility shift; 1.0 mM ATP or ATP Km; read-out: Enz EGFR_L858R IC50
[3] = target: EGFR (d746-750) (Homo sapiens (Human), UniProt P00533, DEL746-750); assay: Biochemical EGFR inhibition assay, EGFR (d746-750); details: Caliper mobility shift; 1.0 mM ATP or ATP Km; read-out: Enz EGFR_Exon19-del746-750 IC50

Row | Compound | IC50 [1] | IC50 [2] | IC50 [3]
1 | COc1cc2ncnc(-c3cn(C)nc3-c3ccccc3)c2nc1O[C@H](C)c1cocn1 [Example 40, (R)-4-(1-((7-methoxy-4-(1-methyl-3-phenyl-1H-pyrazol-4-yl)pyrido[3,2-d]pyrimidin-6-yl)oxy)ethyl) oxazole] | 1.5 nM | 4.2 nM | 2.9 nM
2 | 7-methoxy-6-(2-methyl-2H-indazol-4-yl)-4-(1-methyl-3-phenyl-1H-pyrazol-4-yl)pyrido[3,2-d]pyrimidine [Example 155] | 5.1 nM | 7.3 nM | 2 nM
3 | COc1cc2ncnc(-c3cn(C)nc3-c3ccccc3)c2cc1-c1cnn(CCN(C)C)c1 [Example 233, 2-(4-(7-methoxy-4-(1-methyl-3-phenyl-1H-pyrazol-4-yl)quinazolin-6-yl)-1H-pyrazol-1-yl)-N,N-dimethylethan-1-amine] | 2.5 nM | 2.9 nM | 1.7 nM
4 | COc1cc2ncnc(-c3cn(C)nc3-c3ccccc3)c2cc1-c1cccc2[nH]ncc12 [Example 143, 6-(1H-indazol-4-yl)-7-methoxy-4-(1-methyl-3-phenyl-1H-pyrazol-4-yl)quinazoline] | 3.2 nM | 4.5 nM | 1.7 nM
5 | COc1cc2ncnc(-c3cn(C)nc3-c3ccccc3)c2cc1NC(=O)c1cccc(F)c1C [Example 200, 3-fluoro-N-(7-methoxy-4-(1-methyl-3-phenyl-1H-pyrazol-4-yl)quinazolin-6-yl)-2-methylbenzamide] | 8.4 nM | 5.7 nM | 2.4 nM
6 | COc1cc2ncnc(-c3cn(C)nc3-c3ccccc3)c2cc1[C@@H]1CN(C)CCO1 [Example 130, (R)-2-(7-methoxy-4-(1-methyl-3-phenyl-1H-pyrazol-4-yl)quinazolin-6-yl)-4-methylmorpholine] | 16.1 nM | 21.5 nM | 5.2 nM
7 | COc1cc2ncnc(-c3cn(C)nc3-c3ccccc3F)c2cc1NC(=O)c1ccc(C2CC2)nc1 [Example 230, 6-cyclopropyl-N-(4-(3-(2-fluorophenyl)-1-methyl-1H-pyrazol-4-yl)-7-methoxyquinazolin-6-yl) nicotinamide] | 2.3 nM | 1.5 nM | 0.9 nM
8 | CCOc1cc2ncnc(-c3cn(C)nc3-c3ccccc3)c2cc1N1CCOCC1 [Example 163, 4-(7-ethoxy-4-(1-methyl-3-phenyl-1H-pyrazol-4-yl)quinazolin-6-yl)morpholine] | 5.5 nM | 3.6 nM | 1.4 nM
9 | COc1cc2ncnc(-c3cn(C)nc3-c3ccccc3)c2cc1NC(=O)c1ccnnc1 [Example 328, N-(7-methoxy-4-(1-methyl-3-phenyl-1H-pyrazol-4-yl)quinazolin-6-yl)pyridazine-4-carboxamide] | 4.5 nM | 2.3 nM | 1.1 nM
10 | COc1cc2ncnc(-c3cn(C)nc3-c3ccccc3)c2cc1NC(=O)c1cnn(C(F)(F)F)c1 [Example 187, N-(7-methoxy-4-(1-methyl-3-phenyl-1H-pyrazol-4-yl)quinazolin-6-yl)-1-(trifluoromethyl)-1H-pyrazole-4-carboxamide] | 4 nM | 2.6 nM | 1.5 nM
11 | COc1cc2ncnc(-c3cn(C)nc3-c3ccccc3)c2cc1NC(=O)c1c(F)cccc1F [Example 331, 2,6-difluoro-N-(7-methoxy-4-(1-methyl-3-phenyl-1H-pyrazol-4-yl)quinazolin-6-yl)benzamide] | 1.5 nM | 1.7 nM | 1 nM
12 | COc1cc2ncnc(-c3cn(C)nc3-c3ccccc3)c2cc1NC(=O)[C@@H](C)F (single isomer, unassigned) [Example 245, (R)-2-fluoro-N-(7-methoxy-4-(1-methyl-3-phenyl-1H-pyrazol-4-yl)quinazolin-6-yl) propenamide or (S)-2-fluoro-N-(7-methoxy-4-(1-methyl-3-phenyl-1H-pyrazol-4-yl)quinazolin-6-yl) propenamide] | 2.6 nM | 1.9 nM | 1 nM
13 | CC(C)Oc1cc2ncnc(-c3cn(C)nc3-c3ccccc3)c2cc1[C@H](C)O (single isomer, unassigned) [Example 113, (S)-1-(7-isopropoxy-4-(1-methyl-3-phenyl-1H-pyrazol-4-yl)quinazolin-6-yl)ethan-1-ol or (R)-1-(7-isopropoxy-4-(1-methyl-3-phenyl-1H-pyrazol-4-yl)quinazolin-6-yl)ethan-1-ol] | 11.2 nM | 5.5 nM | 2.4 nM
14 | COc1cc2ncnc(-c3cn(C)nc3-c3ccccc3)c2cc1NC(=O)c1ccc(C)nc1 [Example 323, N-(7-methoxy-4-(1-methyl-3-phenyl-1H-pyrazol-4-yl)quinazolin-6-yl)-6-methylnicotinamide] | 3.9 nM | 3.3 nM | 1.6 nM
15 | COc1cc2ncnc(-c3cn(C)nc3-c3ccccc3)c2nc1O[C@@H](C)c1nnc(C)s1 (single isomer, unassigned) [Example 51, (S)-2-(1-((7-methoxy-4-(1-methyl-3-phenyl-1H-pyrazol-4-yl)pyrido[3,2-d]pyrimidin-6-yl)oxy)ethyl)-5-methyl-1,3,4-thiadiazole or (R)-2-(1-((7-methoxy-4-(1-methyl-3-phenyl-1H-pyrazol-4-yl)pyrido[3,2-d]pyrimidin-6-yl)oxy)ethyl)-5-methyl-1,3,4-thiadiazole] | 30.6 nM | 6.9 nM | 5.3 nM

Results, then the compound that gave them:

Row | IC50 [1] | IC50 [2] | IC50 [3] | Compound
16 | 0.9 nM | 1.5 nM | 0.8 nM | COc1cc2ncnc(-c3cn(C)nc3-c3ccccc3)c2nc1NC(=O)[C@@]12CN(C)C[C@@H]1C2(F)F (single isomer, unassigned) [Example 417, (1S,5R)-6,6-difluoro-N-(7-methoxy-4-(1-methyl-3-phenyl-1H-pyrazol-4-yl)pyrido[3,2-d]pyrimidin-6-yl)-3-methyl-3-azabicyclo[3.1.0]hexane-1-carboxamide or (1R,5S)-6,6-difluoro-N-(7-methoxy-4-(1-methyl-3-phenyl-1H-pyrazol-4-yl)pyrido[3,2-d]pyrimidin-6-yl)-3-methyl-3-azabicyclo[3.1.0]hexane-1-carboxamide]
17 | 0.7 nM | 1.1 nM | 0.5 nM | COc1cc2ncnc(-c3cn(C)nc3-c3ccc(F)cc3)c2nc1NC(=O)C1(C(F)(F)F)CC1 [Example 362, N-(4-(3-(4-fluorophenyl)-1-methyl-1H-pyrazol-4-yl)-7-methoxypyrido[3,2-d]pyrimidin-6-yl)-1-(trifluoromethyl)cyclopropane-1-carboxamide]
18 | 1.4 nM | 1.4 nM | 0.8 nM | COc1cc2ncnc(-c3cn(C)nc3-c3ccccc3F)c2nc1NC(=O)C1(C(F)F)CC1 [Example 366, 1-(difluoromethyl)-N-(4-(3-(2-fluorophenyl)-1-methyl-1H-pyrazol-4-y1)-7-methoxypyrido[3,2-d]pyrimidin-6-yl)cyclopropane-1-carboxamide]
19 | 5.3 nM | 3.1 nM | 1.2 nM | COc1cc2ncnc(-c3cn(C)nc3-c3ccccc3)c2nc1NC(=O)[C@]1(C(F)(F)F)CCN(C)C1 (single isomer, unassigned) [Example 395, (S)—N-(7-methoxy-4-(1-methyl-3-phenyl-1H-pyrazol-4-yl)pyrido[3,2-d]pyrimidin-6-yl)-1-methyl-3-(trifluoromethyl) pyrrolidine-3-carboxamide or (R)—N-(7-methoxy-4-(1-methyl-3-phenyl-1H-pyrazol-4-yl)pyrido[3,2-d]pyrimidin-6-yl)-1-methyl-3-(trifluoromethyl) pyrrolidine-3-carboxamide]
20 | 0.6 nM | 1.7 nM | 1.1 nM | CCn1cc(-c2ncnc3cc(OC)c(NC(=O)C45CC(C4)C5)nc23)c(-c2ccccc2)n1 [Example 315, N-(4-(1-ethyl-3-phenyl-1H-pyrazol-4-yl)-7-methoxypyrido[3,2-d]pyrimidin-6-yl)bicyclo[1.1.1]pentane-1-carboxamide]
21 | 3.2 nM | 5.7 nM | 1.5 nM | CN1C[C@H]2C[C@@]2(C(=O)Nc2nc3c(-c4cn(C)nc4-c4ccccc4)ncnc3cc2OC2CC2)C1 [Example 460, (1S,5S)—N-[7-cyclopropoxy-4-(1-methyl-3-phenyl-1H-pyrazol-4-yl)pyrido[3,2-d]pyrimidin-6-yl]-3-methyl-3-azabicyclo[3.1.0]hexane-1-carboxamide]
22 | 3.5 nM | 6.8 nM | 2 nM | CN(C)CCOc1cc2ncnc(-c3cn(C)nc3-c3ccccc3)c2nc1NC(=O)C1(C(F)(F)F)CC1 [Example 434, N-(7-(2-(dimethylamino)ethoxy)-4-(1-methyl-3-phenyl-1H-pyrazol-4-yl)pyrido[3,2-d]pyrimidin-6-yl)-1-(trifluoromethyl)cyclopropane-1-carboxamide]
23 | 10.5 nM | 24.9 nM | 1.6 nM | COc1cc2ncnc(-c3cn(C)nc3-c3ccccc3)c2nc1NC(=O)C1(F)CCN(C)C1 (stereo not drawn) [Example 433, 3-fluoro-N-(7-methoxy-4-(1-methyl-3-phenyl-1H-pyrazol-4-yl)pyrido[3,2-d]pyrimidin-6-yl)-1-methylpyrrolidine-3-carboxamide]
